The text below walks through data of patent US4932991A, “Thiopyridine-N-oxides, thiopyridines, and thiopyrimidines as urease inhibitors” (Tennessee Valley Authority, priority 1988, dated 1990).

This assay has as its system soil urease. Put plainly: Urea hydrolysis in bands of urea in soil (banded soil system urease inhibition test). The format is biochemical. The following applies: for % inhibition, 3 days (as measured by percent urea unhydrolyzed) / % inhibition, 6 days (as measured by percent urea unhydrolyzed): Hastings silt loam soil, 25° C., inhibitor 41 mg/band with urea 410 mg/band (10% of urea wt/wt), two replicates; for % inhibition, 3 days (as measured by percent urea unhydrolyzed): 3 days incubation; for % inhibition, 6 days (as measured by percent urea unhydrolyzed): 6 days incubation; for urease inhibition effectiveness in soil (in words): banded soil system, three- and six-day tests, compared with PPDA. Here is the method:
Test compounds in Example I, infra, were evaluated in soil systems by an alternative procedure in which powdered mixtures of urea and test compounds were applied in narrow bands in the soil rather than being mixed throughout the soil. The banded configuration is not only applicable to banded applications but also results in concentration gradients of urea, urea hydrolysis products, test compounds, and test compound decomposition products similar to those in the immediate vicinity of urea granules containing test compounds. Another advantage of the banded configuration compared with mixing throughout the soil is that slightly soluble test compounds can be easily band applied, whereas it is difficult to achieve a known degree of mixing of a small quantity of slightly soluble test compound with soil. The banded configuration also enables testing for urease inhibition under realistic soil conditions prior to the development of techniques for cogranulating a wide range of test compounds with urea.
Specifics of the procedure for evaluating test compounds in Example I were as follows. Urease-active soil (Hastings silt loam) was moistened to a moisture content of 20% (dry weight basis) and preincubated at room temperature for two days. Plexiglass containers (6×6×6 cm) were one-half filled with soil and packed to a bulk density of 1.1 g/cm^3. Urea or urea plus inhibitor (thoroughly mixed) was distributed in a narrow band 6 cm long and about 0.5 cm wide on the soil surface. The containers then were filled with soil, again packing to a bulk density of 1.1 g/cm^3. The containers were incubated at 25° C. for the desired reaction period, after which the containers were frozen to about -5° C. to halt urea hydrolysis. Immediately prior to extracting the remaining urea from the soil, said soil was allowed to thaw. Soil from each container was thoroughly mixed, and a 10-g sample was extracted with 100 ml of 2M KCl containing phenylmercuric acetate to prevent urea hydrolysis during handling [L. A. Douglass, J. M. Bremner, Soil Sci. Soc. Am. Proc. 34, 859-862 (1970a)]. Urea in the extracts was determined with an automated version of the colorimetric procedure [L. A. Douglass, J. M. Bremner, Anal. Letters 3, 79-87 (1970b)].
Urease-active soil (Hastings silt loam) was moistened to a moisture content of 20% and preincubated at room temperature for two days. Plexiglass containers (6×6×6 cm) were one-half filled with soil and packed to a bulk density of 1.1 g/cm^3. Urea or urea plus inhibitor (thoroughly mixed) was distributed in a narrow band some 6 cm long and about 0.5 cm wide on the surface of the soil. The containers then were filled with soil and again packed to a bulk density of 1.1 g/cm^3. The containers were incubated at 25° C. for the desired reaction period.
The soil from each container was thoroughly mixed, and 10-g sample was extracted with 100 ml of 2M KCl containing 5 ppm phenylmercuric acetate to prevent urea hydrolysis during handling [L. A. Douglass, J. M. Bremner, Soil Sci. Soc. Am. Proc.34, 859-862 (1970); L. A. Douglass, J. M. Bremner, Anal. Letters 3, 79-87 (1970b)]. The urea in the extracts was determined colorimetrically as a measure of the unhydrolyzed urea.

Entries after “also recorded” stand apart in the source; their conditions may differ.

For the compound `c1ccc(SSc2ccccn2)nc1` [AT, Aldrithiol], the “urease inhibition effectiveness in soil (in words)” value (“urease inhibition effectiveness” for short) is listed as “possesses even the smallest urease activity”. Besides, where the note is “Test Series I”, the “% inhibition, 3 days (as measured by percent urea unhydrolyzed)” value was 42.9% and the “% inhibition, 6 days (as measured by percent urea unhydrolyzed)” value is recorded as 0.7%.

Take `c1ccc(-c2ccccn2)nc1` [DP, 2,2'-Dipyridyl]: for the setting “Test Series I”, the “% inhibition, 3 days (as measured by percent urea unhydrolyzed)” value is on record as 12.0% and the “% inhibition, 6 days (as measured by percent urea unhydrolyzed)” value came out at 0.2%.

Turning to `O=[N+]([O-])c1ccc(SSc2ccc([N+](=O)[O-])cn2)nc1` [DTNP, 2,2-Dithio-5-nitropyridine], for the setting “Test Series I”, the “% inhibition, 3 days (as measured by percent urea unhydrolyzed)” value came to 8.6% and the “% inhibition, 6 days (as measured by percent urea unhydrolyzed)” value worked out at 0.5%.

On to `[O-][n+]1ccccc1SSc1cccc[n+]1[O-]` [DTPNO, 2,2-Dithiobis-pyridine-N-oxide], for which the “urease inhibition effectiveness” value is “as effective an inhibitor as PPDA; also recorded: excellent urease inhibition characteristics”. Besides, where the note is “Test Series I”, the “% inhibition, 3 days (as measured by percent urea unhydrolyzed)” value amounted to 92.2% and the “% inhibition, 6 days (as measured by percent urea unhydrolyzed)” value is on record as 46.4%. For the same compound, where the note is “Test Series II”, the “% inhibition, 3 days (as measured by percent urea unhydrolyzed)” value came to 92.6% and the “% inhibition, 6 days (as measured by percent urea unhydrolyzed)” value was 38.9%.

For `Sc1ccccn1` [MP, 2-Mercaptopyridine], the “urease inhibition effectiveness” value is “excellent urease inhibitors”. Under “Test Series II”, the “% inhibition, 3 days (as measured by percent urea unhydrolyzed)” value amounted to 80.2% and the “% inhibition, 6 days (as measured by percent urea unhydrolyzed)” value was found to be 37.8%.

For the compound `Sc1ncccn1` [MPM, 2-Mercaptopyrimidine], the “urease inhibition effectiveness” value is recorded as “excellent urease inhibitors”. In addition, for the setting “Test Series II”, the “% inhibition, 3 days (as measured by percent urea unhydrolyzed)” value worked out at 72.8% and the “% inhibition, 6 days (as measured by percent urea unhydrolyzed)” value stood at 44.6%.

On to `[O-][n+]1ccccc1S` [MPNO, 2-Mercaptopyridine-N-Oxide], for which the “urease inhibition effectiveness” value is given as “excellent urease inhibition characteristics”. For the setting “Test Series II”, the “% inhibition, 3 days (as measured by percent urea unhydrolyzed)” value turned out to be 76.8% and the “% inhibition, 6 days (as measured by percent urea unhydrolyzed)” value worked out at 32.2%.

On to `Oc1cccnc1S` [MPOL, 2-Mercapto-3-pyridinol], for which the “urease inhibition effectiveness” value is “significantly lower inhibition”. Moreover, for the setting “Test Series II”, the “% inhibition, 3 days (as measured by percent urea unhydrolyzed)” value turned out to be 40.1% and the “% inhibition, 6 days (as measured by percent urea unhydrolyzed)” value is 0%.

On to `[O-][n+]1ccccc1` [PNO, Pyridine-N-Oxide], for which the “urease inhibition effectiveness” value is reported as “significantly lower inhibition”. Where the note is “Test Series II”, the “% inhibition, 3 days (as measured by percent urea unhydrolyzed)” value was 11.3% and the “% inhibition, 6 days (as measured by percent urea unhydrolyzed)” value is given as 0%.

As to `NP(N)(=O)Oc1ccccc1` [PPDA, Phenyl phosphorodiamidate], where the note is “Test Series I”, the “% inhibition, 3 days (as measured by percent urea unhydrolyzed)” value was 95.6% and the “% inhibition, 6 days (as measured by percent urea unhydrolyzed)” value is reported as 59.6%. Also, for the setting “Test Series II”, the “% inhibition, 3 days (as measured by percent urea unhydrolyzed)” value is 92.1% and the “% inhibition, 6 days (as measured by percent urea unhydrolyzed)” value came out at 54.2%.
